Test results published in paper PMC11915372, “Identification of a Series Containing a Pentafluorophenyl Moiety That Targets Pks13 to Inhibit Growth of Mycobacterium tuberculosis” (ACS Infectious Diseases, 2025).
Where “and” joins values, the source holds several entries; their conditions need not be identical. Equal entries are not always repeated.

Tested on: H37Rv cells
Type: cell-based, Mycobacterium tuberculosis

## CN(C)c1ncnc2sc(-c3c(F)c(F)c(F)c(F)c3F)nc12.Cl [Compound 1, CN(C)c1ncnc2sc(nc12)-c1c(c(c(c(c1F)F)F)F)F]
  frequency of resistant colonies: 10^–7 and 10^–8
